These results are taken from US20240247015A1, “PHOSPHORUS DERIVATIVES AS NOVEL SOS1 INHIBITORS” (BAYER AKTIENGESELLSCHAFT, priority 2021, published 2024).

The target in this assay is interaction of human SOS1 (SOS1) with human K-RasG12C (Homo sapiens (Human), UniProt Q07889). The assay can be described thus: Biochemical assay: hK-RasG12C interaction assay with hSOS1 (HTRF). The format is binding. To be noted: GST-hK-RasG12C with His-hSOS1, 60 min incubation at 20° C., mean, read-out: K-RasG12C - SOS interaction assay IC50 (mean). As to the method: Biochemical Assay: hK-RasG12C Interaction Assay with hSOS1 This assay quantifies the equilibrium interaction of human SOS1 (SOS1) with human K-Ras^G12^C (K-RasG12C). Detection of the interaction is achieved by measuring homogenous time-resolved fluorescence resonance energy transfer (HTRF) from antiGST-Europium (FRET donor) bound to GST-K-RasG12C to anti-6His-XL665 bound to His-tagged hSOS1 (FRET-acceptor). The assay buffer containes 5 mM HEPES pH 7.4 (Applichem), 150 mM NaCl (Sigma), […] (Promega), 1 mM DTT (Thermofisher), 0.05% BSA Fraction V, pH 7.0, (ICN Biomedicals), 0.0025% (v/v) Igepal (Sigma) and 100 mM KF (FLUKA). The expression and purification of N-terminally GST-tagged human K-RasG12C (termed GST-hK-RasG12C) and N-terminally His-tagged human SOS1 (termed His10-hSOS1) is described in WO 2019/201848, page 220 line 12-34 and page 222, line 13-25 (expression) and page 222, line 26 to page 223, line 17 (purification). Concentrations of protein batches used are optimized to be within the linear range of the HTRF signal. A Ras working solution is prepared in assay buffer containing typically 10 nM GST-hK-RasG12C and 2 nM antiGST-Eu(K) (Cisbio, France). A SOS1 working solution is prepared in assay buffer containing typically 20 nM His-hSOS1 and 10 nM anti-6His-XL665 (Cisbio, France). An inhibitor control solution is prepared in assay buffer containing nM anti-6His-XL665 without SOS1. Fifty nl of a 100-fold concentrated solution of the test compound in DMSO are transferred into a black microtiter test plate (384 or 1536, Greiner Bio-One, Germany). For this, either a Hummingbird liquid handler (Digilab, MA, USA) or an Echo acoustic system (Labcyte, CA, USA) is used. All steps of the assay are performed at 20° C. A volume of 2.5 μl of the Ras working solution is added to all wells of the test plate using a Multidrop dispenser (Thermo Labsystems). After 2 min preincubation, 2.5 μl of the SOS1 working solution are added to all wells except for those wells at the side of the test plate that are subsequently filled with 2.5 μl of the inhibitor control solution. After 60 min incubation the fluorescence is measured with a Pherastar (BMG, Germany) using the HTRF module (excitation 337 nm, emission 1: 620 nm, emission 2: 665 nm). The ratiometric data (emission 2 divided by emission 1) are normalized using the controls (DMSO=0% inhibition, inhibition control wells with inhibitor control solution=100% inhibition). Compounds are tested in duplicates at up to 11 concentrations (for 20 μM, 5,7 μM, 1,6 μM, 0.47 μM, 0.13 μM, 38 nM, 11 nM, 3.1 nM, 0.89 nM, 0.25 nM and 0.073 nM). IC50 values are calculated by 4-Parameter fitting using a commercial software package (Genedata Screener, Switzerland).
Sequence of interaction of human SOS1 (SOS1) with human K-RasG12C (Q07889 564-1049 limits assumed): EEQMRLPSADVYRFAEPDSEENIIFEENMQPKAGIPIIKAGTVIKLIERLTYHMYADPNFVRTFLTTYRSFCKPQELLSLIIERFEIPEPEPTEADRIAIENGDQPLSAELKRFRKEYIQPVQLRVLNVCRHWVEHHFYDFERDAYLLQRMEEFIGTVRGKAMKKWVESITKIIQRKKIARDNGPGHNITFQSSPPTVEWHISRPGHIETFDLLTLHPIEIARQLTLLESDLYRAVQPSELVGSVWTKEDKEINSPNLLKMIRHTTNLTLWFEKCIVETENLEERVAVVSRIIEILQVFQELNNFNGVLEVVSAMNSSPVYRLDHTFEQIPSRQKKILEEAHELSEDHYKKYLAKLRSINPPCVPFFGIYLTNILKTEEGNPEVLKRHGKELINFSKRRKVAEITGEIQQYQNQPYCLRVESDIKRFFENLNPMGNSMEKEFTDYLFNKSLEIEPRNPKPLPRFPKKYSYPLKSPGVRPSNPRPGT
In general terms: Time-resolved FRET reads energy transfer from a long-lived donor to a nearby acceptor.

The structures appear in SMILES notation.

In general, IC50 refers to the concentration that inhibits the measured activity by half.

`Cc1nc(N[C@H](C)c2cccc(C(F)(F)C(C)O)c2F)c2cc(P(C)(C)=O)ncc2n1` (stereo in doubt) [Example 86, (2R*)-1-{3-[(1R)-1-{[6-(dimethylphosphoryl)-2-methylpyrido[3,4-d]pyrimidin-4-yl]amino}ethyl]-2-fluorophenyl}-1,1-difluoropropan-2-ol]: the IC50 came to 36.6 nM.

On to `CCP(=O)(CC)c1cc2c(N[C@H](C)c3cccc(C(F)(F)C(C)O)c3F)nc(C)nc2cn1` (stereo in doubt) [Example 90, (2R*)-1-{3-[(1R)-1-{[6-(diethylphosphoryl)-2-methylpyrido[3,4-d]pyrimidin-4-yl]amino}ethyl]-2-fluorophenyl}-1,1-difluoropropan-2-ol], for which the IC50 worked out at 26.6 nM.

As for `Cc1nc(N[C@H](C)c2cccc(C(F)(F)C(O)C(C)(C)C)c2F)c2cc(P(C)(C)=O)ncc2n1` (stereo in doubt) [Example 136, (2R*)-1-{3-[(1R)-1-{[6-(dimethylphosphoryl)-2-methylpyrido[3,4-d]pyrimidin-4-yl]amino}ethyl]-2-fluorophenyl}-1,1-difluoro-3,3-dimethylbutan-2-ol], the IC50 came to 38.9 nM.

As for `Cc1nc(N[C@H](C)c2cccc(C(F)(F)F)c2C)c2cc(P(C)(C)=O)ncc2n1` [Example 1, 6-(dimethylphosphoryl)-2-methyl-N-{(1R)-1-[2-methyl-3-(trifluoromethyl)phenyl]ethyl}pyrido[3,4-d]pyrimidin-4-amine], the IC50 was found to be 20.6 nM.

Turning to `Cc1nc(N[C@H](C)c2cccc(C(F)F)c2F)c2cc(P(C)(C)=O)ncc2n1` [Example 2, N-{(1R)-1-[3-(difluoromethyl)-2-fluorophenyl]ethyl}-6-(dimethylphosphoryl)-2-methylpyrido[3,4-d]pyrimidin-4-amine], the IC50 was determined as 50.8 nM.

On to `Cc1nc(N[C@H](C)c2cccc(C(F)(F)C(C)(C)O)c2F)c2cc(P(C)(C)=O)ncc2n1` [Example 3, 1-{3-[(1R)-1-{[6-(dimethylphosphoryl)-2-methylpyrido[3,4-d]pyrimidin-4-yl]amino}ethyl]-2-fluorophenyl}-1,1-difluoro-2-methylpropan-2-ol], for which the half-inhibitory concentration (IC50) turned out to be 19.1 nM.

`Cc1nc(N[C@H](C)c2cccc(C(F)(F)C(C)(C)O)c2F)c2cc(P3(=O)CCCC3)ncc2n1` [Example 4, 1-[4-({(1R)-1-[3-(1,1-difluoro-2-hydroxy-2-methylpropyl)-2-fluorophenyl]ethyl}amino)-2-methylpyrido[3,4-d]pyrimidin-6-yl]-1lambda^5-phospholan-1-one]: the IC50 came to 12.8 nM.

With `Cc1nc(N[C@H](C)c2cccc(C(F)(F)F)c2C)c2cc(P3(=O)CCN(Cc4ccccc4)CC3)ncc2n1` [Example 5, 1-benzyl-4-[2-methyl-4-({(1R)-1-[2-methyl-3-(trifluoromethyl)phenyl]ethyl}amino)pyrido[3,4-d]pyrimidin-6-yl]-1,4lambda^5-azaphosphinan-4-one], the IC50 amounted to 261 nM.

As to `CC(=O)N1CCP(=O)(c2cc3c(N[C@H](C)c4cccc(C(F)(F)F)c4C)nc(C)nc3cn2)CC1` [Example 7, 1-acetyl-4-[2-methyl-4-({(1R)-1-[2-methyl-3-(trifluoromethyl)phenyl]ethyl}amino)pyrido[3,4-d]pyrimidin-6-yl]-1,4lambda^5-azaphosphinan-4-one], the half-maximal inhibitory concentration (IC50) turned out to be 6.24 nM.

Turning to `Cc1nc(N[C@H](C)c2cccc(C(F)F)c2F)c2cc(P3(=O)CCN(Cc4ccccc4)CC3)ncc2n1` [Example 8, 1-benzyl-4-[4-({(1R)-1-[3-(difluoromethyl)-2-fluorophenyl]ethyl}amino)-2-methylpyrido[3,4-d]pyrimidin-6-yl]-1,4lambda^5-azaphosphinan-4-one], the IC50 came to 94 nM.

Consider `Cc1nc(N[C@H](C)c2cccc(C(F)F)c2F)c2cc(P3(=O)CCNCC3)ncc2n1` [Example 9, 4-[4-({(1R)-1-[3-(difluoromethyl)-2-fluorophenyl]ethyl}amino)-2-methylpyrido[3,4-d]pyrimidin-6-yl]-1,4lambda^5-azaphosphinan-4-one], for which the IC50 amounted to 22.3 nM.

On to `CC(=O)N1CCP(=O)(c2cc3c(N[C@H](C)c4cccc(C(F)F)c4F)nc(C)nc3cn2)CC1` [Example 10, 1-acetyl-4-[4-({(1R)-1-[3-(difluoromethyl)-2-fluorophenyl]ethyl}amino)-2-methylpyrido[3,4-d]pyrimidin-6-yl]-1,4lambda^5-azaphosphinan-4-one], for which the IC50 was determined as 7.8 nM.

Consider `Cc1nc(N[C@H](C)c2cccc(C(F)(F)C(C)(C)O)c2F)c2cc(P(C)(C)=O)nc(C)c2n1` [Example 11, 1-{3-[(1R)-1-{[6-(dimethylphosphoryl)-2,8-dimethylpyrido[3,4-d]pyrimidin-4-yl]amino}ethyl]-2-fluorophenyl}-1,1-difluoro-2-methylpropan-2-ol], for which the IC50 is 52.9 nM.

`Cc1nc(N[C@H](C)c2cccc(C(F)(F)C(C)(C)O)c2F)c2cc(P(=O)(C(C)C)C(C)C)ncc2n1` [Example 12, 1-{3-[(1R)-1-({6-[di(propan-2-yl)phosphoryl]-2-methylpyrido[3,4-d]pyrimidin-4-yl}amino)ethyl]-2-fluorophenyl}-1,1-difluoro-2-methylpropan-2-ol]: the IC50 worked out at 59.4 nM.

Take `Cc1nc(N[C@H](C)c2cccc(C(F)(F)F)c2C)c2cc(P(C)(C)=O)cnc2n1` [Example 13, 6-(dimethylphosphoryl)-2-methyl-N-{(1R)-1-[2-methyl-3-(trifluoromethyl)phenyl]ethyl}pyrido[2,3-d]pyrimidin-4-amine]: the IC50 was determined as 16.3 nM.

For `Cc1nc(N[C@H](C)c2cccc(C(F)(F)C(C)(C)O)c2F)c2cc(P(C)(C)=O)cnc2n1` [Example 14, 1-{3-[(1R)-1-{[6-(dimethylphosphoryl)-2-methylpyrido[2,3-d]pyrimidin-4-yl]amino}ethyl]-2-fluorophenyl}-1,1-difluoro-2-methylpropan-2-ol], the IC50 was determined as 9.78 nM.

On to `Cc1nc(N[C@H](C)c2cccc(C(F)(F)C(C)(C)O)c2F)c2cc(P(=O)(C(C)C)C(C)C)cnc2n1` [Example 15, 1-{3-[(1R)-1-({6-[di(propan-2-yl)phosphoryl]-2-methylpyrido[2,3-d]pyrimidin-4-yl}amino)ethyl]-2-fluorophenyl}-1,1-difluoro-2-methylpropan-2-ol], for which the IC50 stood at 47.1 nM.

On to `Cc1nc(N[C@H](C)c2cccc(C(F)(F)C(C)(C)O)c2F)c2cc(P3(=O)CCCC3)cnc2n1` [Example 16, 1-[4-({(1R)-1-[3-(1,1-difluoro-2-hydroxy-2-methylpropyl)-2-fluorophenyl]ethyl}amino)-2-methylpyrido[2,3-d]pyrimidin-6-yl]-1lambda^5-phospholan-1-one], for which the IC50 is 10.6 nM.

`Cc1nc(N[C@H](C)c2cccc(C(F)(F)F)c2C)c2cc(P(C)(C)=O)c(C)nc2n1` [Example 17, 6-(dimethylphosphoryl)-2,7-dimethyl-N-{(1R)-1-[2-methyl-3-(trifluoromethyl)phenyl]ethyl}pyrido[2,3-d]pyrimidin-4-amine]: the IC50 came out at 10.6 nM.

As to `Cc1nc(N[C@H](C)c2cccc(C(F)F)c2F)c2cc(P(C)(C)=O)c(C)nc2n1` [Example 18, N-{(1R)-1-[3-(difluoromethyl)-2-fluorophenyl]ethyl}-6-(dimethylphosphoryl)-2,7-dimethylpyrido[2,3-d]pyrimidin-4-amine], the IC50 was determined as 27.7 nM.

With `Cc1nc(N[C@H](C)c2cccc(C(F)(F)C(C)(C)O)c2F)c2cc(P(C)(C)=O)c(C)nc2n1` [Example 19, 1-{3-[(1R)-1-{[6-(dimethylphosphoryl)-2,7-dimethylpyrido[2,3-d]pyrimidin-4-yl]amino}ethyl]-2-fluorophenyl}-1,1-difluoro-2-methylpropan-2-ol], the IC50 is 14.3 nM.

As for `Cc1nc(N[C@H](C)c2cccc(C(F)(F)C(C)(C)O)c2F)c2cc(P3(=O)CCCC3)c(C)nc2n1` [Example 20, 1-[4-({(1R)-1-[3-(1,1-difluoro-2-hydroxy-2-methylpropyl)-2-fluorophenyl]ethyl}amino)-2,7-dimethylpyrido[2,3-d]pyrimidin-6-yl]-1lambda^5-phospholan-1-one], the IC50 amounted to 7.21 nM.
